Laboratory results reported in ChEMBL document CHEMBL3585330, “Anticancer activity of koningic acid and semisynthetic derivatives” (Bioorg Med Chem, 2015).
pIC50: −log10 of the molar value.

Assays:
Type in all cases: functional, cell-based
A549 = assay: Antiproliferative activity against human A549 cells assessed as inhibition of cell proliferation incubated for 72 hrs by conventional ATP quantification method; settings: A549, 72 h
HCT-116 = assay: Antiproliferative activity against human HCT116 cells assessed as inhibition of cell proliferation incubated for 72 hrs by conventional ATP quantification method; settings: HCT-116, 72 h
[1] = Antiproliferative activity against human NAMALWA cells assessed as inhibition of cell proliferation incubated for 72 hrs by conventional ATP quantification method; settings: NAMALVA
[2] = Antiproliferative activity against human WM266.4 cells assessed as inhibition of cell proliferation incubated for 72 hrs by conventional ATP quantification method; settings: WM 266-4, 72 h
A-375 = assay: Antiproliferative activity against human A375 cells assessed as inhibition of cell proliferation incubated for 72 hrs by conventional ATP quantification method; settings: A-375, 72 h

Row | Structure (SMILES) | pIC50 (A549) | pIC50 (HCT-116) | pIC50 (A-375) | pIC50 [1] | pIC50 [2]
1 | CNC(=O)C1=C[C@@H]2[C@@H](C(C)C)CC[C@@]3(CO3)[C@H]2C(=O)OC1 | 5.26 | 5.15 | 5.38 | 5.89 | 5.23
2 | CNC(=O)C1=C[C@@H]2[C@@H](C(C)C)CC[C@@](O)(CO)[C@H]2C(=O)OC1 | < 4.49 | < 4.49 | < 4.49 | < 4.49 | < 4.49
3 | CC(C)[C@H]1CC[C@@](O)(CCl)[C@H]2C(=O)OCC(C(=O)O)=C[C@H]12 [HEPTELIDIC ACID CHLOROHYDRIN] | 6.26 | 6.66 | 5.88 | 6.49 | 6.26

Continued by rising pIC50 (A549), values first:

Row | pIC50 (A549) | pIC50 (HCT-116) | pIC50 (A-375) | Structure (SMILES) | pIC50 [1] | pIC50 [2]
4 | 6.35 | 5.66 | 5.39 | COC(=O)C1=C[C@@H]2[C@@H](C(C)C)CC[C@@]3(CO3)[C@H]2C(=O)OC1 | 5.76 | 5.39
5 | 6.35 | 6.21 | 5.79 | CC(C)[C@H]1CC[C@@]2(CO2)[C@H]2C(=O)OCC(C(=O)OCc3ccc(-c4ccc([N+](=O)[O-])cc4)o3)=C[C@H]12 | 5.92 | 5.44
6 | 6.46 | 6.66 | 5.88 | CC(C)[C@H]1CC[C@@]2(CO2)[C@H]2C(=O)OCC(C(=O)OCc3ccc(-c4ccccc4)o3)=C[C@H]12 | 6.43 | 6.02
